Test results published in patent publication US7625713B2, “Process for identifying a ligand that binds to the NEP binding site for the SMR1 pentapeptide” (Institut Pasteur, priority 2000, dated 2009).
Where a SMILES comes first, the peptide text is derived from it.

Biological target: T1, NEP (Rattus norvegicus, UniProt P07861)
T1 construct: incubations of membrane and fresh tissue slice preparations from nervous tissues; from tissue; host or cells: dorsal spinal cord of male Wistar rats (fresh slices or 100 000 x g membrane fraction)
T1 sequence (P07861 1-750): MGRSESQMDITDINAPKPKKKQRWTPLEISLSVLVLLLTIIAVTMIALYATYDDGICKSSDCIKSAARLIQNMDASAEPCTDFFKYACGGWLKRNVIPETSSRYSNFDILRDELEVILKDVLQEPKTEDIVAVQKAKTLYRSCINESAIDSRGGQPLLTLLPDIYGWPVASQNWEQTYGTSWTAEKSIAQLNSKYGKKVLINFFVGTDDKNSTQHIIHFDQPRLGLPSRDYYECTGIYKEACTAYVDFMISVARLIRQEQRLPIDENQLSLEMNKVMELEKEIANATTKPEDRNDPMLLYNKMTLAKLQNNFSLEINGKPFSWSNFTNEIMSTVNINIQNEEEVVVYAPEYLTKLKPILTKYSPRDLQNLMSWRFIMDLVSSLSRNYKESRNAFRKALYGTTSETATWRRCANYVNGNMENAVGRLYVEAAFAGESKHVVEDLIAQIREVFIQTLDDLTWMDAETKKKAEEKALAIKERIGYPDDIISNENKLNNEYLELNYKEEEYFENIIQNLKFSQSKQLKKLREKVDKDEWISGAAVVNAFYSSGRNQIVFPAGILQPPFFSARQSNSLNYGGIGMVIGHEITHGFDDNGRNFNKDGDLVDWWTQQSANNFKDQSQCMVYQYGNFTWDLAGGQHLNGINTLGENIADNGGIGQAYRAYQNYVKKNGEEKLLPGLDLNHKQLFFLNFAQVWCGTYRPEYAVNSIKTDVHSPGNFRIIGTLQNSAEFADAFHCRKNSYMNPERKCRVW
Experiment: Met-enkephalin hydrolysis by rat spinal cord slices and membrane preparations, RP-HPLC analysis
Type: biochemical
Conditions: 10 μM combined with the inhibitors of CPB and DPPIV (10 μM), spinal cord slices, 20 min at 25° C.
Method: FIG. 2-B: […] Retention time) recovered after 20 min. incubation at 25° C. with 1 mg fresh tissue slices in a 1 ml final volume of KRBG buffer. The organs are rapidly removed, dissected on ice, freed of nerve fibers and of adipose tissues and then washed in cold oxygenated glucose- and bicarbonate-containing Krebs Ringer (KRBG) solution, whose composition is the following: 120 mM NaCl-5 mM KCl-1.2 mM KH2PO4-27.5 mM NaHCO3-2.6 mM CaCl2-0.67 mM MgSO4-5.9 mM glucose. The slices of tissues are prepared either manually with the aid of a scalpel (1-2 mm thick), or mechanically with the aid of a “Tissue Chopper” (1 mm thick). Slices are then dispersed into reaction tubes where they are subjected to three successive washes in ice-cold oxygenated KRBG. […] The organs dissected out and washed in ice-cold KRBG are homogenized at 4° C. in 10 volumes (vol./wt.) of 50 mM Tris/HCl buffered at pH 7.2, using a Teflon-glass homogenizer (3×5 sec.). […] The metabolism rate of the NEP-sensitive peptides was measured using the both NEP substrates involved in the signaling of the nociceptive response: the neuropeptides Met-enkephalin and Substance P. […] Their identification and relative quantification (peak height) are checked by continuously monitoring the UV absorbance at 254 nm of column outflow. […]

SMILES: N=C(N)NCCC[C@H](NC(=O)[C@@H]1CCCN1C(=O)[C@H](CC(N)=O)NC(=O)[C@H](Cc1c[nH]cn1)NC(=O)[C@@H](N)CCC(N)=O)C(=O)O [sialorphin, Gln-His-Asn-Pro-Arg] (H-QHNPR-OH; N-terminus and C-terminus assumed)
- inhibition of Met-enkephalinase activity (Met-enkephalin degradation): 80%
